Results published in paper PMC5622171 (Nature Communications, 2017).

What was measured:
Test in all cases: KINOMEscan kinase profiling
Format in all cases: binding
BLK = biological target: T1, BLK (Homo sapiens, UniProt P51451); conditions: read-out: %Inhibition by 10 μM SPA70
T1 construct: purchased DiscoverX (Ambit Biosciences) KINOMEscan
Method in brief: (§1)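 KINOMEscan profiling followed a published protocol. Kinases whose inhibition exceeded a set cut-off were then tested in a dilution series beginning at 30 µM.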

BRK = biological target: T2, BRK (Homo sapiens, UniProt Q13882); conditions: read-out: %Inhibition by 10 μM SPA70
T2 construct: purchased DiscoverX (Ambit Biosciences) KINOMEscan
Method in brief: as §1

CAMKK2 = biological target: T3, CAMKK2 (Homo sapiens, UniProt Q96RR4); conditions: read-out: %Inhibition by 10 μM SPA70
T3 construct: purchased DiscoverX (Ambit Biosciences) KINOMEscan
Method in brief: as §1

CASK = biological target: T4, CASK (Homo sapiens, UniProt O14936); conditions: read-out: %Inhibition by 10 μM SPA70
T4 construct: purchased DiscoverX (Ambit Biosciences) KINOMEscan
Method in brief: as §1

CDKL2 = biological target: T5, CDKL2 (Homo sapiens, UniProt Q92772); conditions: read-out: %Inhibition by 10 μM SPA70
T5 construct: purchased DiscoverX (Ambit Biosciences) KINOMEscan
Method in brief: as §1

CIT = biological target: T6, CIT (Homo sapiens, UniProt O14578)
T6 construct: purchased DiscoverX (Ambit Biosciences) KINOMEscan
Method in brief: as §1

CSNK1A1 = biological target: T7, CSNK1A1 (Homo sapiens, UniProt P48729); conditions: read-out: %Inhibition by 10 μM SPA70
T7 construct: purchased DiscoverX (Ambit Biosciences) KINOMEscan
Method in brief: as §1

CSNK1G1 = biological target: T8, CSNK1G1 (Homo sapiens, UniProt Q9HCP0)
T8 construct: purchased DiscoverX (Ambit Biosciences) KINOMEscan
Method in brief: as §1

CSNK2A1 = biological target: T9, CSNK2A1 (Homo sapiens, UniProt P68400); conditions: read-out: %Inhibition by 10 μM SPA70
T9 construct: purchased DiscoverX (Ambit Biosciences) KINOMEscan
Method in brief: as §1

EPHB4 = biological target: T10, EPHB4 (Homo sapiens, UniProt P54760); conditions: read-out: %Inhibition by 10 μM SPA70
T10 construct: purchased DiscoverX (Ambit Biosciences) KINOMEscan
Method in brief: as §1

ERK2 = biological target: T11, ERK2 (Homo sapiens, UniProt P28482); conditions: read-out: %Inhibition by 10 μM SPA70
T11 construct: purchased DiscoverX (Ambit Biosciences) KINOMEscan
Method in brief: as §1

ERK5 = biological target: T12, ERK5 (Homo sapiens, UniProt Q13164); conditions: read-out: %Inhibition by 10 μM SPA70
T12 construct: purchased DiscoverX (Ambit Biosciences) KINOMEscan
Method in brief: as §1

FAK = biological target: T13, FAK (Homo sapiens, UniProt Q05397); conditions: read-out: %Inhibition by 10 μM SPA70
T13 construct: purchased DiscoverX (Ambit Biosciences) KINOMEscan
Method in brief: as §1

HIPK3 = biological target: T14, HIPK3 (Homo sapiens, UniProt Q9H422); conditions: read-out: %Inhibition by 10 μM SPA70
T14 construct: purchased DiscoverX (Ambit Biosciences) KINOMEscan
Method in brief: as §1

IRAK1 = biological target: T15, IRAK1 (Homo sapiens, UniProt P51617); conditions: read-out: %Inhibition by 10 μM SPA70
T15 construct: purchased DiscoverX (Ambit Biosciences) KINOMEscan
Method in brief: as §1

[1] = biological target: T16, JAK1(JH2domain-pseudokinase) (Homo sapiens, UniProt P23458)
T16 construct: JAK1(JH2domain-pseudokinase); purchased DiscoverX (Ambit Biosciences) KINOMEscan
Method in brief: as §1

MAK = biological target: T17, MAK (Homo sapiens, UniProt P20794); conditions: read-out: %Inhibition by 10 μM SPA70
T17 construct: purchased DiscoverX (Ambit Biosciences) KINOMEscan
Method in brief: as §1

MAPKAPK5 = biological target: T18, MAPKAPK5 (Homo sapiens, UniProt Q8IW41); conditions: read-out: %Inhibition by 10 μM SPA70
T18 construct: purchased DiscoverX (Ambit Biosciences) KINOMEscan
Method in brief: as §1

MAST1 = biological target: T19, MAST1 (Homo sapiens, UniProt Q9Y2H9); conditions: read-out: %Inhibition by 10 μM SPA70
T19 construct: purchased DiscoverX (Ambit Biosciences) KINOMEscan
Method in brief: as §1

MEK4 = biological target: T20, MEK4 (Homo sapiens, UniProt P45985); conditions: read-out: %Inhibition by 10 μM SPA70
T20 construct: purchased DiscoverX (Ambit Biosciences) KINOMEscan
Method in brief: as §1

MEK5 = biological target: T21, MEK5 (Homo sapiens, UniProt Q13163); conditions: read-out: %Inhibition by 10 μM SPA70
T21 construct: purchased DiscoverX (Ambit Biosciences) KINOMEscan
Method in brief: as §1

MEK6 = biological target: T22, MEK6 (Homo sapiens, UniProt P52564); conditions: read-out: %Inhibition by 10 μM SPA70
T22 construct: purchased DiscoverX (Ambit Biosciences) KINOMEscan
Method in brief: as §1

MRCKA = biological target: T23, MRCKA (Homo sapiens, UniProt Q5VT25); conditions: read-out: %Inhibition by 10 μM SPA70
T23 construct: purchased DiscoverX (Ambit Biosciences) KINOMEscan
Method in brief: as §1

MYLK4 = biological target: T24, MYLK4 (Homo sapiens, UniProt Q86YV6); conditions: read-out: %Inhibition by 10 μM SPA70
T24 construct: purchased DiscoverX (Ambit Biosciences) KINOMEscan
Method in brief: as §1

NEK9 = biological target: T25, NEK9 (Homo sapiens, UniProt Q8TD19); conditions: read-out: %Inhibition by 10 μM SPA70
T25 construct: purchased DiscoverX (Ambit Biosciences) KINOMEscan
Method in brief: as §1

PAK2 = biological target: T26, PAK2 (Homo sapiens, UniProt Q13177); conditions: read-out: %Inhibition by 10 μM SPA70
T26 construct: purchased DiscoverX (Ambit Biosciences) KINOMEscan
Method in brief: as §1

PIM1 = biological target: T27, PIM1 (Homo sapiens, UniProt P11309); conditions: read-out: %Inhibition by 10 μM SPA70
T27 construct: purchased DiscoverX (Ambit Biosciences) KINOMEscan
Method in brief: as §1

PLK2 = biological target: T28, PLK2 (Homo sapiens, UniProt Q9NYY3)
T28 construct: purchased DiscoverX (Ambit Biosciences) KINOMEscan
Method in brief: as §1

PRKG1 = biological target: T29, PRKG1 (Homo sapiens, UniProt Q13976); conditions: read-out: %Inhibition by 10 μM SPA70
T29 construct: purchased DiscoverX (Ambit Biosciences) KINOMEscan
Method in brief: as §1

RIOK2 = biological target: T30, RIOK2 (Homo sapiens, UniProt Q9BVS4); conditions: read-out: %Inhibition by 10 μM SPA70
T30 construct: purchased DiscoverX (Ambit Biosciences) KINOMEscan
Method in brief: as §1

ROS1 = biological target: T31, ROS1 (Homo sapiens, UniProt P08922); conditions: read-out: %Inhibition by 10 μM SPA70
T31 construct: purchased DiscoverX (Ambit Biosciences) KINOMEscan
Method in brief: as §1

[2] = biological target: T32, RSK3(Kin.Dom.2-C-terminal) (Homo sapiens, UniProt Q15349); conditions: read-out: %Inhibition by 10 μM SPA70
T32 construct: RSK3(Kin.Dom.2-C-terminal); purchased DiscoverX (Ambit Biosciences) KINOMEscan
Method in brief: as §1

SGK3 = biological target: T33, SGK3 (Homo sapiens, UniProt Q96BR1); conditions: read-out: %Inhibition by 10 μM SPA70
T33 construct: purchased DiscoverX (Ambit Biosciences) KINOMEscan
Method in brief: as §1

SLK = biological target: T34, SLK (Homo sapiens, UniProt Q9H2G2); conditions: read-out: %Inhibition by 10 μM SPA70
T34 construct: purchased DiscoverX (Ambit Biosciences) KINOMEscan
Method in brief: as §1

SNRK = biological target: T35, SNRK (Homo sapiens, UniProt Q9NRH2); conditions: read-out: %Inhibition by 10 μM SPA70
T35 construct: purchased DiscoverX (Ambit Biosciences) KINOMEscan
Method in brief: as §1

SRMS = biological target: T36, SRMS (Homo sapiens, UniProt Q9H3Y6); conditions: read-out: %Inhibition by 10 μM SPA70
T36 construct: purchased DiscoverX (Ambit Biosciences) KINOMEscan
Method in brief: as §1

SRPK2 = biological target: T37, SRPK2 (Homo sapiens, UniProt P78362); conditions: read-out: %Inhibition by 10 μM SPA70
T37 construct: purchased DiscoverX (Ambit Biosciences) KINOMEscan
Method in brief: as §1

SYK = biological target: T38, SYK (Homo sapiens, UniProt P43405)
T38 construct: purchased DiscoverX (Ambit Biosciences) KINOMEscan
Method in brief: as §1

TIE1 = biological target: T39, TIE1 (Homo sapiens, UniProt P35590); conditions: read-out: %Inhibition by 10 μM SPA70
T39 construct: purchased DiscoverX (Ambit Biosciences) KINOMEscan
Method in brief: as §1

TLK1 = biological target: T40, TLK1 (Homo sapiens, UniProt Q9UKI8); conditions: read-out: %Inhibition by 10 μM SPA70
T40 construct: purchased DiscoverX (Ambit Biosciences) KINOMEscan
Method in brief: as §1

VRK2 = biological target: T41, VRK2 (Homo sapiens, UniProt Q86Y07); conditions: read-out: %Inhibition by 10 μM SPA70
T41 construct: purchased DiscoverX (Ambit Biosciences) KINOMEscan
Method in brief: as §1

YANK1 = biological target: T42, YANK1 (Homo sapiens, UniProt Q8WU08); conditions: read-out: %Inhibition by 10 μM SPA70
T42 construct: purchased DiscoverX (Ambit Biosciences) KINOMEscan
Method in brief: as §1

T4 sequence (O14936 whole entry): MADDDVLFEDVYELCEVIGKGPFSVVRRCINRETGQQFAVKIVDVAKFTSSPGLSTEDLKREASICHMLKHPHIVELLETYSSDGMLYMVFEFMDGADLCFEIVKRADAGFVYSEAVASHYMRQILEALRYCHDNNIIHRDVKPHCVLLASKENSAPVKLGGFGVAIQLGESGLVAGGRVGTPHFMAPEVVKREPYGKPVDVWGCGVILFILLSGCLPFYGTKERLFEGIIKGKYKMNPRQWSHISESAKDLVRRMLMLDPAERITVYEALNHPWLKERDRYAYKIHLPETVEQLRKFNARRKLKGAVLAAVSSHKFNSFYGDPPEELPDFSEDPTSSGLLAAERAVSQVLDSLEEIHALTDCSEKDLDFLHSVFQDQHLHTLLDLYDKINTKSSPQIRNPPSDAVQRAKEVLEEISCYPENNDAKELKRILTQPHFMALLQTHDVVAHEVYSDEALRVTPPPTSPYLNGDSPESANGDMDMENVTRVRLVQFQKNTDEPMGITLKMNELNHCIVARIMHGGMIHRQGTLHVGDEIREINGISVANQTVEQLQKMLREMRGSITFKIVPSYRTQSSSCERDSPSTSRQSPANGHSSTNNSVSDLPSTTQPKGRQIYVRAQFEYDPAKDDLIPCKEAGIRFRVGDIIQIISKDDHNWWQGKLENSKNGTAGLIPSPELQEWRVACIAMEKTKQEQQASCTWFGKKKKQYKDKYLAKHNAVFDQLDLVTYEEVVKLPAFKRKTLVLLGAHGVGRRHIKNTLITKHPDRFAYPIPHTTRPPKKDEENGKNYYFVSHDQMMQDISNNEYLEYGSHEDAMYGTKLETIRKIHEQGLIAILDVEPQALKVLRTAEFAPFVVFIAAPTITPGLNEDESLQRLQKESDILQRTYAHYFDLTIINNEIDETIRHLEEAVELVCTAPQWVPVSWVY
T6 sequence (O14578 whole entry): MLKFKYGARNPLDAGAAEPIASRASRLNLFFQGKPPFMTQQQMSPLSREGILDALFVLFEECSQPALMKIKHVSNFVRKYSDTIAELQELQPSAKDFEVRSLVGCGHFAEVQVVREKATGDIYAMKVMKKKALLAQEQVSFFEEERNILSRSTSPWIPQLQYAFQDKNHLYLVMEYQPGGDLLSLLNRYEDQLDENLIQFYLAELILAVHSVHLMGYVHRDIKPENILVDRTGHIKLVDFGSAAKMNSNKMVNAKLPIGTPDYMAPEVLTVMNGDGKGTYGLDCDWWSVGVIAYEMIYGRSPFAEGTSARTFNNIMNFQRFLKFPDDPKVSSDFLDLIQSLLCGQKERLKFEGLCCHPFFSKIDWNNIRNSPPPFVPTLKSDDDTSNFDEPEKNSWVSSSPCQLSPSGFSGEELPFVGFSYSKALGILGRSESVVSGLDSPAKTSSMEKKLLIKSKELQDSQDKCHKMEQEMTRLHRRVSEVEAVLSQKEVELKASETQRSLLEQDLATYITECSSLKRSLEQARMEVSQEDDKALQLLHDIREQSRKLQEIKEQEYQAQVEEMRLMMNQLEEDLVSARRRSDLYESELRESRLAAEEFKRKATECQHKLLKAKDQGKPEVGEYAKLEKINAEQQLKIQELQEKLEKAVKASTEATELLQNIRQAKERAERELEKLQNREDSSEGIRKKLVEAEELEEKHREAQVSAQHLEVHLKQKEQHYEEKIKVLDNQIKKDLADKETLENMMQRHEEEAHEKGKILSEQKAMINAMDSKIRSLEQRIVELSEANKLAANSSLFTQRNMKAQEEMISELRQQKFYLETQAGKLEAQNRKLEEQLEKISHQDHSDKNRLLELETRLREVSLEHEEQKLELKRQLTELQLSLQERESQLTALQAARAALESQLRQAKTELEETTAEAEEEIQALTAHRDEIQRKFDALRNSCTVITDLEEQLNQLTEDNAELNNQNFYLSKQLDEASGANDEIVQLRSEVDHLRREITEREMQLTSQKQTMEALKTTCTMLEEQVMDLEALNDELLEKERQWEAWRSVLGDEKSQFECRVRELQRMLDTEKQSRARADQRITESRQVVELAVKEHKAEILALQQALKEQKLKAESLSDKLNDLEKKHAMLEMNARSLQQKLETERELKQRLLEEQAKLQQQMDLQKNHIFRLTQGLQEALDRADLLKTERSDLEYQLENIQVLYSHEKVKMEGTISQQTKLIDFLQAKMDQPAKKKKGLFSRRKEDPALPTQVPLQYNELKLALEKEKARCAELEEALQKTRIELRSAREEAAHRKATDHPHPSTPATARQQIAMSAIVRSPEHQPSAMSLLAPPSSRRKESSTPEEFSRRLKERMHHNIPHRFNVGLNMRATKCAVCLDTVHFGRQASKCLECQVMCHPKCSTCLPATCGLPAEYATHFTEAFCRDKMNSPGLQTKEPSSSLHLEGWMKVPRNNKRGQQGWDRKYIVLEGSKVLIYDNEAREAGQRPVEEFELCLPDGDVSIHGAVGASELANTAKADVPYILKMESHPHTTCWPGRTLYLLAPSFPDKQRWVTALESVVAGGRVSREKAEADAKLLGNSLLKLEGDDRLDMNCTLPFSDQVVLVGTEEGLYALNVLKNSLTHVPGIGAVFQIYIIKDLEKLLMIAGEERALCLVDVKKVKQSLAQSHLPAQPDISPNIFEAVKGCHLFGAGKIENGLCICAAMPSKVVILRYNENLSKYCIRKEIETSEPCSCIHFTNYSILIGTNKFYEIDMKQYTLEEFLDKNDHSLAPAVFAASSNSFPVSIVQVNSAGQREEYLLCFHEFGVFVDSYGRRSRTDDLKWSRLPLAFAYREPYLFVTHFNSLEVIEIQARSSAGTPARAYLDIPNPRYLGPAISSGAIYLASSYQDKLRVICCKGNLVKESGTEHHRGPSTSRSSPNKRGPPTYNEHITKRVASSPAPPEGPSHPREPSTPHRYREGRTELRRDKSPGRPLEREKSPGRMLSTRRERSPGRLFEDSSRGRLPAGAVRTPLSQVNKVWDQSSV
T13 sequence (Q05397 whole entry): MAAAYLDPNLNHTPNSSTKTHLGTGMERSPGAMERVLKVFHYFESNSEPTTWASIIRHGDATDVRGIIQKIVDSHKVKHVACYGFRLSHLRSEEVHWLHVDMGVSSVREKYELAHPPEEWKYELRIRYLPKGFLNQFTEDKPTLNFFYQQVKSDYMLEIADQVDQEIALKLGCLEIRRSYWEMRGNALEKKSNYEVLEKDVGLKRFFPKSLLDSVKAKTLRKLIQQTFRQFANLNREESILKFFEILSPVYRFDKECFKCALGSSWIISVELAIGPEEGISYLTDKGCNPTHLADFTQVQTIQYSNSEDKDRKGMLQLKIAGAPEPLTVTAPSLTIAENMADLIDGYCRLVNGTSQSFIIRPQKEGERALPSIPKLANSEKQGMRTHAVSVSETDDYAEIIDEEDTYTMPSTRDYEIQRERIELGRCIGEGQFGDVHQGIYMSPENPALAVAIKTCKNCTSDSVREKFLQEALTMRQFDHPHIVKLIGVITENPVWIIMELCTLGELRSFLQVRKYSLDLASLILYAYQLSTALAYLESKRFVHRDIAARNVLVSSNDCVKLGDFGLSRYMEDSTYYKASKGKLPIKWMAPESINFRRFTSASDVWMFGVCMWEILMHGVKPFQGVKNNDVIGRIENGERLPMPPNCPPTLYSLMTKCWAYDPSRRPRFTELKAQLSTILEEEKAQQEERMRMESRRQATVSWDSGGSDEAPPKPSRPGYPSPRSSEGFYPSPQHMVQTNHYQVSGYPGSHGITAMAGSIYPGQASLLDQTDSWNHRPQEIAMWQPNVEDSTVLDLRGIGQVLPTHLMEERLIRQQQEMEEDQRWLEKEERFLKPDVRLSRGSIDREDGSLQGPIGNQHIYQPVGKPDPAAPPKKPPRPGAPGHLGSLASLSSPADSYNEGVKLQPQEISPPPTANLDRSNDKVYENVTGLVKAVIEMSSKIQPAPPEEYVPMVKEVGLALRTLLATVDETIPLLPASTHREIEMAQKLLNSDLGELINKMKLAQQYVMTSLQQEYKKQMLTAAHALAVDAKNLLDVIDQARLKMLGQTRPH
T28 sequence (Q9NYY3 whole entry): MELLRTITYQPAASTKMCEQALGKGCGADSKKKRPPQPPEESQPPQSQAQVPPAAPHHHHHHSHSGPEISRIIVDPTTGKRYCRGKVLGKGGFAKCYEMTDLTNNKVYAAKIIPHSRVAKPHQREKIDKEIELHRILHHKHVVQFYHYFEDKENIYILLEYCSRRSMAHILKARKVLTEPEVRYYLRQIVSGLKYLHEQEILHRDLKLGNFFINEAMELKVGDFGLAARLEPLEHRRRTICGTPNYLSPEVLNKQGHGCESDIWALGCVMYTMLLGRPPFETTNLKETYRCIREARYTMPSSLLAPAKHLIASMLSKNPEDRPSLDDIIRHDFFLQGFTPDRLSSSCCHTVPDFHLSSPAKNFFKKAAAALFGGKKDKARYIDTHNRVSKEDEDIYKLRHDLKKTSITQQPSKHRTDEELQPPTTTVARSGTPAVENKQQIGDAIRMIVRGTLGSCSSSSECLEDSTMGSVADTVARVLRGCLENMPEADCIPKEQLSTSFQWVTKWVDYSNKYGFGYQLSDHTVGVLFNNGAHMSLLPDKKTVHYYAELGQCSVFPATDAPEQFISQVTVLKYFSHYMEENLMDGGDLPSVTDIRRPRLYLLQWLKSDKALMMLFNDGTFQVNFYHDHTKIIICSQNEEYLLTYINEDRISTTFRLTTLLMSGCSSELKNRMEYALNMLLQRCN
T42 sequence (Q8WU08 whole entry): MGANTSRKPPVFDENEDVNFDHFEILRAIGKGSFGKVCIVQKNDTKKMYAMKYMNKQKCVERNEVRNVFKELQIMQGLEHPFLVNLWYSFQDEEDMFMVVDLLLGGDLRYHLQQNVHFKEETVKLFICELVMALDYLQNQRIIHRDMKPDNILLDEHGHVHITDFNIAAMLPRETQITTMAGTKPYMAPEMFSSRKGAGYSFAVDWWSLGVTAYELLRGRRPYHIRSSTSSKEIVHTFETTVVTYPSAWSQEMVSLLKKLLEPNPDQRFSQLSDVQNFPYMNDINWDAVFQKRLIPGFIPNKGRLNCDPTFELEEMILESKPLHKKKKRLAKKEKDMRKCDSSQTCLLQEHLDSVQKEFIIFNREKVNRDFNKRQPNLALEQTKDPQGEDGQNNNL

SMILES: COc1ccc(OC)c(-n2nnc(S(=O)(=O)c3ccc(C(C)(C)C)cc3)c2C)c1 [SPA70]
- inhibition at 10 µM (BLK): 11%
- inhibition at 10 µM (BRK): 0%
- inhibition at 10 µM (CAMKK2): 0%
- inhibition at 10 µM (CASK): 9%
- inhibition at 10 µM (CDKL2): 22%
- %Inhibition by 10 μM SPA70 (CIT): 12%
- inhibition at 10 µM (CSNK1A1): 1%
- %Inhibition by 10 μM SPA70 (CSNK1G1): 0%
- inhibition at 10 µM (CSNK2A1): 15%
- inhibition at 10 µM (EPHB4): 0%
- inhibition at 10 µM (ERK2): 0%
- inhibition at 10 µM (ERK5): 0%
- inhibition at 10 µM (FAK): 6%
- inhibition at 10 µM (HIPK3): 10%
- inhibition at 10 µM (IRAK1): 0%
- %Inhibition by 10 μM SPA70 [1]: 0%
- inhibition at 10 µM (MAK): 13%
- inhibition at 10 µM (MAPKAPK5): 12%
- inhibition at 10 µM (MAST1): 0%
- inhibition at 10 µM (MEK4): 0%
- inhibition at 10 µM (MEK5): 8%
- inhibition at 10 µM (MEK6): 0%
- inhibition at 10 µM (MRCKA): 0%
- inhibition at 10 µM (MYLK4): 0%
- inhibition at 10 µM (NEK9): 0%
- inhibition at 10 µM (PAK2): 0%
- inhibition at 10 µM (PIM1): 0%
- %Inhibition by 10 μM SPA70 (PLK2): 9%
- inhibition at 10 µM (PRKG1): 0%
- inhibition at 10 µM (RIOK2): 0%
- inhibition at 10 µM (ROS1): 5%
- inhibition at 10 µM [2]: 19%
- inhibition at 10 µM (SGK3): 0%
- inhibition at 10 µM (SLK): 9%
- inhibition at 10 µM (SNRK): 0%
- inhibition at 10 µM (SRMS): 0%
- inhibition at 10 µM (SRPK2): 0%
- %Inhibition by 10 μM SPA70 (SYK): 0%
- inhibition at 10 µM (TIE1): 0%
- inhibition at 10 µM (TLK1): 23%
- inhibition at 10 µM (VRK2): 0%
- inhibition at 10 µM (YANK1): 0%
